Source: US20230417767A1, “COMPOSITIONS AND METHODS FOR THE DIAGNOSIS AND TREATMENT OF AGE-RELATED MACULAR DEGENERATION” (Georgetown University, priority 2016, published 2023)

Key:
AMD RPE = test: Cell viability of AMD RPE under oxidative stress; format: cell-based, human; conditions: FIG. 16E-G
Protocol: RPE were cultured at 80-90% confluency in 96-well plates, at 37° C. with 5% O2 and 5% CO2. Oxidative stress was induced with different concentrations of H2O2 ranging from 0-10 mM for 24 or 48 hrs, followed by cell viability measurements. Cell viability was measured following a 30 min incubation with the PestoBlue Reagent (Life Technologies) of RPE monolayers cultured on 96-well plates, 6 wells used for each sample. Fluorescence measurements were performed using an Ultra384 plate reader with 535 nm excitation and 612 nm emission wavelengths.

APP = APP expression in retina of mice fed high fat diet containing compound; format: in vivo; conditions: compound in high fat diet (telmisartan, UPF 0.001%; fenofibrate 0.1%), 11 weeks, FIG. 21
Protocol: (§1) Quantitative Real-Time Polymerase Chain Reaction Analyses. Total RNA was extracted with the RNeasy kit (Qiagen), treated with RNase-free DNase I (Qiagen), and reverse transcribed with oligo-dT using the SuperScript III cDNA synthesis kit (Invitrogen). Quantitative PCR was performed with the QuantiTect SYBR Green PCR Kit (Qiagen). Specific primers for each gene were designed with the PrimerQuest software (Integrated DNA Technologies), and the cDNA sequences of each gene (GenBank) were used to produce 100-250 bp PCR amplicons that span one or more exon/intron boundaries.
(§2) The HET mice described in Example 2 were administered various compounds to determine the effects of these compounds on the development of AMD. In the High Fat Diet (HFD) experiments, 5 wild type (WT) mice, 5 PGC-1α+/−mice, 5 PGC-1α−/−mice at 2 months old with C57BL/6 background were fed with regular diet (RD) or high fat diet for 16 weeks. […]
(§3) To test the effects of telmisartan, fenofibrate and UPF 1069 on mice, 5 wild type (WT) mice, 5 PGC-1α+/−mice, 5 PGC-1α−/−mice at 2 months old were administrated with RD, HFD, or HFD (Testdiet, 5015) containing one of the three compounds. […] 11 weeks after beginning of administration of the compounds, the mice were sacrificed, the body weight was measured, the eyes were enucleated, with the retinas being extracted and processed for RNA isolation. […]

[1] = tested on: Acyl-CoA Dehydrogenase (ACADM); test: Acyl-CoA Dehydrogenase (ACADM) expression in RPE; format: cell-based, human; conditions: FIG. 16A-C
Source text: (§4) FIGS. 1-3 show various representations of an in vitro disease model of AMD. A total of 10 eyes from 5 organ donors clinically diagnosed with dry AMD and 10 eyes from 5 clinically normal donors were purchased from Lions Medical Eye Bank. RPE were isolated according to established protocols (Maminishkis et al., 2006) and cultured in Epithelial Cell Media (EpiCM, ScienCell) under controlled oxygen (5%) and CO2 (5%) conditions. Studies have shown that low (physiological) oxygen concentration promotes RPE growth (Knorr et al., 1993) and better protects from ROS-induced damage in vitro. RPE were then purified with Magnetic-Activated Cell Sorting (MACS) by positive selection for epithelial cells using anti-BEST1 antibody (Abcam) and anti-E-cadherin (Miltenyi Biotech); and by negative selection using a fibroblast-specific antibody (Miltenyi Biotech) to remove fibroblasts. The purity of the sorted cells was confirmed by immunostaining with anti-ZO-1 and anti-BEST1, and Real-Time PCR for RPE specific genes. The RPE cells were grown in Epithelial Cell Media (EpiCM, ScienCell) at 37° C., with 5% O2 and 5% CO2. […] Skin fibroblasts from a dry AMD patient were used to generate iPSC-RPE. Genotyping of the donors and the patient is represented in FIG. 3.
(§5) Quantitative Real-Time Polymerase Chain Reaction Analyses. […] Quantitative PCR was performed with the QuantiTect SYBR Green PCR Kit (Qiagen). […]

PGC-1α [2] = test: PGC-1α gene expression in mice fed high fat diet containing compound; format: in vivo; conditions: compound in high fat diet (telmisartan, UPF 0.001%; fenofibrate 0.1%), 11 weeks, FIG. 24
Protocol: as §1, §2, §3

APOB = APOB expression in retina of mice fed high fat diet containing compound; format: in vivo; conditions: PGC-1α+/− (HET) mice; compound in high fat diet (telmisartan, UPF 0.001%; fenofibrate 0.1%), 11 weeks; FIG. 20
Protocol: as §1, §2, §3

AMPK = AMPK phosphorylation in RPE; format: cell-based, human; conditions: FIG. 16D
Source text: as §4, with “Genotyping of the donors and the patient is represented in FIG. 3.” left out
Immunoblot analysis. […] Protein concentrations were measured by Bradford assay (Bio-Rad). Protein samples were analyzed using the NuPAGE electrophoresis and XCell Western blot system (Invitrogen). […]

APOE = APOE expression in retina of mice fed high fat diet containing compound; format: in vivo; conditions: compound in high fat diet (telmisartan, UPF 0.001%; fenofibrate 0.1%), 11 weeks, FIG. 22
Protocol: as §1, §2, §3

PGC-1α [3] = test: PGC-1α gene expression in retinal pigment epithelium (RPE); format: cell-based, human; conditions: FIG. 16A-C
Source text: as §4, §5

APOJ = APOJ expression in retina of mice fed high fat diet containing compound; format: in vivo; conditions: genotype (WT or HET) not stated; telmisartan 0.001% in high fat diet, 11 weeks; FIG. 23A
Protocol: as §1, §2, §3

| Structure (SMILES) | cell viability under oxidative stress (AMD RPE) | APP levels in the retina (APP; PGC-1α+/− (HET) mice) | APP levels in the retina (APP; WT mice) | Acyl-CoA Dehydrogenase (ACADM) expression ([1]; AMD RPE) | Acyl-CoA Dehydrogenase (ACADM) expression ([1]; normal (control) RPE) | PGC-1α expression (PGC-1α [2]; PGC-1α+/− (HET) mice) | PGC-1α expression (PGC-1α [2]; WT mice) | APOB levels in the retina (APOB) | AMPK phosphorylation (AMPK; AMD RPE) | AMPK phosphorylation (AMPK; normal (control) RPE) | APOE levels in the retina (APOE; PGC-1α+/− (HET) mice) | APOE levels in the retina (APOE; WT mice) | PGC-1α expression (PGC-1α [3]; AMD RPE) | PGC-1α expression (PGC-1α [3]; normal (control) RPE) | APOJ levels (APOJ) |
| --- | --- | --- | --- | --- | --- | --- | --- | --- | --- | --- | --- | --- | --- | --- | --- |
| O=C(O)c1cc(C(=O)O)c2c(n1)C(=O)C(=O)c1cc(C(=O)O)[nH]c1-2 [PQQ, pyrroloquinoline quinone] | increasing |  |  |  |  |  |  |  |  |  |  |  |  |  |  |
| CCCc1nc2c(C)cc(-c3nc4ccccc4n3C)cc2n1Cc1ccc(-c2ccccc2C(=O)O)cc1 [telmisartan] | increasing | unable to decrease | significant increase | increasing | increasing | significantly Increase | significantly increased | significantly reduce | inducing | inducing | significantly reduce | significantly reduce | increasing | increasing | did not reduce |
